In patent US12454525B2, “IL4I1 inhibitors and methods of use” (Merck Sharp & Dohme LLC, priority 2020, dated 2025):

target: T1, recombinant IL4I1 (Homo sapiens, UniProt Q96RQ9); assay: IL4I1 Enzymatic Assay (Amplex Red/HRP coupled H2O2 detection); format: biochemical; conditions: 240 min; four-hour pre-incubation with compound; 1 nM IL4I1, 1 mM each Phe/Tyr/Trp; ten-point titration; fluorescence readout; read-out: Potency EC50 (nM) (240 min)
T1 construct: purchased R&D Systems 5684-AO-020
T1 sequence (Q96RQ9 22-567): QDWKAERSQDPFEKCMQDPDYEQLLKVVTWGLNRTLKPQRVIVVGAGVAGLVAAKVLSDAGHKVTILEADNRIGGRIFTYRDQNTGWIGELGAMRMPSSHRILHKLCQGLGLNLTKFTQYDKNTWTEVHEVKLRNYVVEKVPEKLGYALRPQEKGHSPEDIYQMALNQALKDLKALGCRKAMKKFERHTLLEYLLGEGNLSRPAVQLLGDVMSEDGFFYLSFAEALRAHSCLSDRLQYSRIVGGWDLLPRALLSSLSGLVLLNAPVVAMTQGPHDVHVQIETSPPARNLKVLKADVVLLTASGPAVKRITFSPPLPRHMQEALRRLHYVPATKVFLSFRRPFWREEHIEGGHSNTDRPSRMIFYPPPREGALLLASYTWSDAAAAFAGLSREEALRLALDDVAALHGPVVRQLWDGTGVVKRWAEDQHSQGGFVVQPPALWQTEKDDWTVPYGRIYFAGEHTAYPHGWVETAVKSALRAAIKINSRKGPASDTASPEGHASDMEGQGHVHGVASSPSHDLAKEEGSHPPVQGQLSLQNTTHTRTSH
In short: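 Recombinant IL4I1 at 1 nM final, pre-incubated 4 h with compound (0.1% DMSO) at ambient temperature in 50 mM Hepes pH 7.0, 0.005% Tween20; 1 mM each Phe/Tyr/Trp, 120 min, H2O2 read via Amplex Red/HRP fluorescence (544/590 nm). EC50 from ten-point four-parameter fit.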

EC50 | SMILES
45 nM | O=c1[nH]c2ccccc2n1CCCOc1cccc2cccnc12 [Example 97, 1-(3-(quinolin-8-yloxy)propyl)-1,3-dihydro-2H-benzo[d]imidazol-2-one]
1570 nM | CS(=O)(=O)NC[C@H]1CC[C@H](Cn2c(=O)[nH]c3ccccc32)CC1 [Example 98, N-(((1r,4r)-4-((2-oxo-2,3-dihydro-1H-benzo[d]imidazol-1-yl)methyl)cyclohexyl)methyl)methanesulfonamide]
2690 nM | CC(=O)N[C@H]1CC[C@H](Cn2c(=O)[nH]c3ccccc32)CC1 [Example 99, N-((1r,4r)-4-((2-oxo-2,3-dihydro-1H-benzo[d]imidazol-1-yl)methyl)cyclohexyl)acetamide]
784 nM | O=c1[nH]c2cc(Cl)ccc2n1Cc1ccc(Cc2nnco2)cc1 [Example 100]
90 nM | O=C(NCC(F)(F)F)c1cccc(Cn2c(=O)[nH]c3ccccc32)c1 [Example 101, 3-((2-oxo-2,3-dihydro-1H-benzo[d]imidazol-1-yl)methyl)-N-(2,2,2-trifluoroethyl)benzamide]
8 nM | O=C(c1cccc(Cn2c(=O)[nH]c3ccccc32)c1)N1CCC1 [Example 102, 1-(3-(azetidine-1-carbonyl)benzyl)-1,3-dihydro-2H-benzo[d]imidazol-2-one]
4 nM | O=C(Cc1cccc(Cn2c(=O)[nH]c3ccccc32)c1)Nc1cccnc1 [Example 103, 2-(3-((2-oxo-2,3-dihydro-1H-benzo[d]imidazol-1-yl)methyl)phenyl)-N-(pyridin-3-yl)acetamide]
5 nM | N#Cc1cccc(NC(=O)Cc2cccc(Cn3c(=O)[nH]c4ccccc43)c2)c1 [Example 104, N-(3-cyanophenyl)-2-(3-((2-oxo-2,3-dihydro-1H-benzo[d]imidazol-1-yl)methyl)phenyl)acetamide]
10 nM | CN(C)C(=O)Cc1cccc(Cn2c(=O)[nH]c3ccccc32)c1 [Example 105, N,N-dimethyl-2-(3-((2-oxo-2,3-dihydro-1H-benzo[d]imidazol-1-yl)methyl)phenyl)acetamide]
38 nM | O=C(Cc1ccc(Cn2c(=O)[nH]c3ccccc32)cc1)NC1CCC(F)C1 (stereo not drawn) [Example 106, N-(3-fluorocyclopentyl)-2-(4-((2-oxo-2,3-dihydro-1H-benzo[d]imidazol-1-yl)methyl)phenyl)acetamide]
5 nM | CNC(=O)Cc1ccc(Cn2c(=O)[nH]c3ccccc32)cc1 [Example 107, N-methyl-2-(4-((2-oxo-2,3-dihydro-1H-benzo[d]imidazol-1-yl)methyl)phenyl)acetamide]
8 nM | O=C(Cc1ccc(Cn2c(=O)[nH]c3ccccc32)cc1)N1CCC(F)C1 (stereo not drawn) [Example 108, 1-(4-(2-(3-fluoropyrrolidin-1-yl)-2-oxoethyl)benzyl)-1,3-dihydro-2H-benzo[d]imidazol-2-one]
4940 nM | CCc1ccc2c(c1)[nH]c(=O)n2Cc1ccccc1 [Example 109, 1-benzyl-5-ethyl-1,3-dihydro-2H-benzo[d]imidazol-2-one]
9160 nM | O=c1[nH]c2cccc(F)c2n1Cc1ccccc1 [Example 110, 1-benzyl-7-fluoro-1,3-dihydro-2H-benzimidazol-2-one]
1320 nM | O=c1[nH]c2sccc2n1Cc1ccccc1 [Example 112, 1-benzyl-1,3-dihydro-2H-thieno[2,3-d]imidazol-2-one]
2850 nM | O=c1[nH]c2ccsc2n1Cc1ccccc1 [Example 113, 3-benzyl-1,3-dihydro-2H-thieno[2,3-d]imidazol-2-one]
107 nM | O=c1[nH]c2ccccc2n1CCCCc1cccc2cccnc12 [Example 114, 1-(4-(quinolin-8-yl)butyl)-1,3-dihydro-2H-benzo[d]imidazol-2-one]
1300 nM | O=c1[nH]c2ccccc2n1CC1CCN(c2ccccn2)CC1 [Example 115, 1-((1-(pyridin-2-yl)piperidin-4-yl)methyl)-1,3-dihydro-2H-benzo[d]imidazol-2-one]
